This is an account of results in patent US4590205A, “Antiinflammatory and/or analgesic 2,3-diaryl-5-halo thiophenes” (E. I. Du Pont de Nemours and Company, priority 1984, dated 1986).

For the first assay, the system named is adjuvant-induced arthritis in rats. The assay can be described thus: Established adjuvant-induced arthritis in rats (decrease of paw volume). The class given is in vivo, Charles River Lewis male rats. To be noted: Rattus norvegicus, po, read-out: Adjuvant Arthritis ED50.
In the case of `CC(=O)Oc1ccccc1C(=O)O` [Aspirin, aspirin, reference compound], the ED50 is 305 mg/kg.

With `COc1ccc2c(c1)c(CC(=O)O)c(C)n2C(=O)c1ccc(Cl)cc1` [Indomethacin, indomethacin, reference compound], the ED50 came to 0.3 mg/kg.

The same assay, now with this note: Rattus norvegicus; oral gavage, 7 daily doses; ED50% decrease from control paw volume; read-out: Adjuvant Arthritis ED50.
On to `Fc1ccc(-c2cc(Br)sc2-c2ccc(F)cc2)cc1` [Example 1, 5-Bromo-2,3-bis(4-fluorophenyl)thiophene], for which the ED50 is above 60 mg/kg.

In the case of `COc1ccc(-c2cc(Cl)sc2-c2ccc(OC)cc2)cc1` [Example 2, 5-Chloro-2,3-bis(4-methoxyphenyl)thiophene], the 50% effective dose (ED50) is 4.5 mg/kg.

As for `CSc1ccc(-c2sc(Br)cc2-c2ccc(F)cc2)cc1` [Example 5, 5-bromo-3-(4-fluorophenyl)-2-(4-methylthiophenyl)thiophene], the ED50 turned out to be 1.4 mg/kg.

As to `CSc1ccc(-c2cc(Br)sc2-c2ccc(F)cc2)cc1` [Example 6, 5-bromo-2-(4-fluorophenyl)-3-(4-methylthiophenyl)thiophene], the ED50 worked out at 0.25 mg/kg.

As to `Cc1ccc(-c2cc(Br)sc2-c2ccc(C)cc2)cc1` [Example 7], the ED50 was above 81 mg/kg.

Consider `COc1ccc(-c2cc(Br)sc2-c2ccc(SC)cc2)cc1` [Example 8], for which the 50% effective dose (ED50) was found to be 2.9 mg/kg.

As for `CS(=O)(=O)c1ccc(-c2sc(Br)cc2-c2ccc(F)cc2)cc1` [Example 9, 5-bromo-3-(4-fluorophenyl)-2-(4-methylsulfonylphenyl)thiophene], the ED50 came out at 0.4 mg/kg.

For `CC(C)Cc1ccc(C(C)C(=O)O)cc1` (stereo not drawn) [Ibuprofen, ibuprofen, reference compound], the ED50 amounted to 100 mg/kg.

Regarding `CCCCC1C(=O)N(c2ccccc2)N(c2ccccc2)C1=O` [Phenylbutazone, phenylbutazone, reference compound], the ED50 was 10 mg/kg.

Staying with this assay, now noted: daily dose 81 (mg/kg), oral.
Regarding `COc1ccc(-c2cc(I)sc2-c2ccc(OC)cc2)cc1` [Example 3, 5-Iodo-2,3-bis(4-methoxyphenyl)thiophene], the “% Decrease from control paw volume at indicated daily dose” value was 46%.

For the next assay, the system named is characteristic stretching or writhing syndrome which is indicative of pain induced by phenylquinone. The experiment in a line: Phenylquinone writhing test (PQW), analgesic activity. The format is in vivo, female white mice. To be noted: Mus musculus, po, read-out: PQW ED50. As for the experimental part:
A test compound suspended in 1% methylcellulose was given orally to fasted (17-21 hours) female white mice, 5-20 animals per double blind test. Aqueous (0.01% phenyl-p-benzoquinone) phenylquinone, 0.20 ml per mouse, was injected intraperitoneally 6 minutes before observations were begun.
For `CC(=O)Oc1ccccc1C(=O)O` [Aspirin, aspirin, reference compound], the ED50 was found to be 135 mg/kg.

Take `COc1ccc2c(c1)c(CC(=O)O)c(C)n2C(=O)c1ccc(Cl)cc1` [Indomethacin, indomethacin, reference compound]: the ED50 worked out at 0.35 mg/kg.

Staying with this assay, now noted: Mus musculus; oral, fasted mice; effective analgesic dose for 50% of the mice; read-out: PQW ED50.
With `Fc1ccc(-c2cc(Br)sc2-c2ccc(F)cc2)cc1` [Example 1, 5-Bromo-2,3-bis(4-fluorophenyl)thiophene], the median effective dose (ED50) came to 6.8 mg/kg.

On to `COc1ccc(-c2cc(Cl)sc2-c2ccc(OC)cc2)cc1` [Example 2, 5-Chloro-2,3-bis(4-methoxyphenyl)thiophene], for which the ED50 was 2.1 mg/kg.

On to `COc1ccc(-c2cc(I)sc2-c2ccc(OC)cc2)cc1` [Example 3, 5-Iodo-2,3-bis(4-methoxyphenyl)thiophene], for which the median effective dose (ED50) is below 15 mg/kg.

As to `CSc1ccc(-c2sc(Br)cc2-c2ccc(F)cc2)cc1` [Example 5, 5-bromo-3-(4-fluorophenyl)-2-(4-methylthiophenyl)thiophene], the ED50 was above 108 mg/kg.

`CSc1ccc(-c2cc(Br)sc2-c2ccc(F)cc2)cc1` [Example 6, 5-bromo-2-(4-fluorophenyl)-3-(4-methylthiophenyl)thiophene]: the ED50 is above 108 mg/kg.

With `Cc1ccc(-c2cc(Br)sc2-c2ccc(C)cc2)cc1` [Example 7], the ED50 worked out at 2.9 mg/kg.

Regarding `COc1ccc(-c2cc(Br)sc2-c2ccc(SC)cc2)cc1` [Example 8], the ED50 is below 15 mg/kg.

As to `CS(=O)(=O)c1ccc(-c2sc(Br)cc2-c2ccc(F)cc2)cc1` [Example 9, 5-bromo-3-(4-fluorophenyl)-2-(4-methylsulfonylphenyl)thiophene], the ED50 is above 108 mg/kg.

For `CC(C)Cc1ccc(C(C)C(=O)O)cc1` (stereo not drawn) [Ibuprofen, ibuprofen, reference compound], the ED50 was 10 mg/kg.

Consider `CCCCC1C(=O)N(c2ccccc2)N(c2ccccc2)C1=O` [Phenylbutazone, phenylbutazone, reference compound], for which the ED50 amounted to 80 mg/kg.
